Experimental data taken from patent US20250368652A1, “MICROBIOCIDAL BICYCLIC HETEROCYCLIC CARBOXAMIDE DERIVATIVES” (SYNGENTA CROP PROTECTION AG, priority 2022, published 2025).

Key:
[1] = test system: Glomerella lagenarium (Colletotrichum lagenarium); assay: Glomerella lagenarium (Colletotrichum lagenarium) / liquid culture (anthracnose); format: cell-based; details: Colletotrichum orbiculare, liquid culture (PDB), growth inhibition photometrically 3-4 days after application, compared to untreated control
Experimental: (§1) Mycelia fragments or conidia suspensions of a fungus prepared either freshly from liquid cultures of the fungus or from cryogenic storage, are directly mixed into nutrient broth. DMSO solutions of the test compound (max. 10 mg/mL) are diluted with 0.025% Tween20 by a factor of 50 and 10 μL of this solution is pipetted into a microtiter plate (96-well format). The nutrient broth containing the fungal spores/mycelia fragments is then added to give an end concentration of the tested compound. The test plates are incubated in the dark at 24° C. and 96% relative humidity. The inhibition of fungal growth is determined photometrically after 2 to 7 days, depending on the pathosystem, and percent antifungal activity relative to the untreated check is calculated. Conidia of the fungus from cryogenic storage are directly mixed into nutrient broth (PDB potato dextrose broth). After placing a (DMSO) solution of test compound into a microtiter plate (96-well format), the nutrient broth containing the fungal spores is added. The test plates are incubated at 24° C. and the inhibition of growth is measured photometrically 3-4 days after application.

[2] = test system: Botryotinia fuckeliana (Botrytis cinerea); assay: Botryotinia fuckeliana (Botrytis cinerea) / liquid culture (gray mould); format: cell-based; details: liquid culture (Vogels broth), growth inhibition photometrically 3-4 days after application, compared to untreated control
Experimental: as §1, with “(Vogels” for “(PDB potato dextrose”, “determined” for “measured”

[3] = test system: Magnaporthe grisea (Pyricularia oryzae); format: in vivo; details: 200 ppm; rice leaf segments cv. Ballila, preventative, inoculated 2 days after application; compared to untreated control
Phytophthora infestans = format: in vivo; details: 200 ppm; tomato leaf disks, preventative, inoculated 1 day after application; compared to untreated control
[4] = test system: Puccinia recondita f. sp. tritici; assay: Puccinia recondita f. sp. tritici / wheat / leaf disc curative (brown rust); format: in vivo; details: 200 ppm, wheat leaf segments cv. Kanzler, applied 1 day after inoculation, compared to untreated control
[5] = test system: Blumeria graminis f. sp. tritici (Erysiphe graminis f. sp. tritici); assay: Blumeria graminis f. sp. tritici / wheat / leaf disc preventative (powdery mildew on wheat); format: in vivo; details: 200 ppm, wheat leaf segments cv. Kanzler, inoculated 1 day after application, compared to untreated control
Experimental: Leaf disks or leaf segments of various plant species are cut from plants grown in a greenhouse. The cut leaf disks or segments are placed in multiwell plates (24-well format) onto water agar. The leaf disks are sprayed with a test solution before (preventative) or after (curative) inoculation. Compounds to be tested are prepared as DMSO solutions (max. 10 mg/mL) which are diluted to the appropriate concentration with 0.025% Tween20 just before spraying. The inoculated leaf disks or segments are incubated under defined conditions (temperature, relative humidity, light, etc.) according to the respective test system. A single evaluation of disease level is carried out 3 to 14 days after inoculation, depending on the pathosystem. Percent disease control relative to the untreated check leaf disks or segments is then calculated. Wheat leaf segments cv. Kanzler are placed on agar in a multiwell plate (24-well format) and sprayed with the formulated test compound diluted in water. […] The inoculated leaf disks are incubated at 20° C. and 60% rh under a light regime of 24 h darkness followed by 12 h light/12 h darkness in a climate chamber and the activity of a compound is assessed as percent disease control compared to untreated when an appropriate level of disease damage appears on untreated check leaf segments (6-8 days after application).

[6] = test system: Phaeosphaeria nodorum (Septoria nodorum); assay: Phaeosphaeria nodorum (Septoria nodorum) / wheat / leaf disc preventative (glume blotch); format: in vivo; details: 200 ppm, wheat leaf segments cv. Kanzler, inoculated 2 days after application, compared to untreated control
Experimental: Leaf disks or leaf segments of various plant species are cut from plants grown in a greenhouse. The cut leaf disks or segments are placed in multiwell plates (24-well format) onto water agar. The leaf disks are sprayed with a test solution before (preventative) or after (curative) inoculation. Compounds to be tested are prepared as DMSO solutions (max. 10 mg/mL) which are diluted to the appropriate concentration with 0.025% Tween20 just before spraying. The inoculated leaf disks or segments are incubated under defined conditions (temperature, relative humidity, light, etc.) according to the respective test system. A single evaluation of disease level is carried out 3 to 14 days after inoculation, depending on the pathosystem. Percent disease control relative to the untreated check leaf disks or segments is then calculated. Wheat leaf segments cv. Kanzler are placed on agar in a multiwell plate (24-well format) and sprayed with the formulated test compound diluted in water. […] The inoculated test leaf disks are incubated at 20° C. and 75% rh under a light regime of 12 h light/12 h darkness in a climate cabinet and the activity of a compound is assessed as percent disease control compared to untreated when an appropriate level of disease damage appears in untreated check leaf disks (5-7 days after application).

With `O=C(NCC(F)c1ccc(Cl)cc1Cl)c1c(Oc2cccc(C3CC3)c2)cnc2cc(F)nn12` (stereo not shown) [Compound P-1.10, 6-(3-cyclopropylphenoxy)-N-[2-(2,4-dichlorophenyl)-2-fluoro-ethyl]-2-fluoro-pyrazolo[1,5-a]pyrimidine-7-carboxamide] the inhibition of growth at 20 ppm [1] was ≥ 80% and the inhibition of growth at 20 ppm [2] was ≥ 80%.
With `O=C(NCC(F)c1ccc(Cl)cc1Cl)c1c(Oc2cccc(C3CC3)c2)cnc2c(Cl)cnn12` (racemic) [Compound P-1.9, 3-chloro-6-(3-cyclopropylphenoxy)-N-[2-(2,4-dichlorophenyl)-2-fluoro-ethyl]pyrazolo[1,5-a]pyrimidine-7-carboxamide] the “control of Magnaporthe grisea” value [3] was “at least 80%”, the “control of Phytophthora infestans” value (Phytophthora infestans) was “at least 80%” and the inhibition of growth at 20 ppm [2] was ≥ 80%.
In the case of `Cc1nn2c(C(=O)NCC(F)c3ccc(Cl)cc3Cl)c(Oc3cccc(C4CC4)c3)cnc2c1C#N` (stereo not shown) [Compound P-1.20, 3-cyano-6-(3-cyclopropylphenoxy)-N-[2-(2,4-dichlorophenyl)-2-fluoro-ethyl]-2-methyl-pyrazolo[1,5-a]pyrimidine-7-carboxamide], the inhibition of growth at 20 ppm [1] is reported as ≥ 80% and the inhibition of growth at 20 ppm [2] is reported as ≥ 80%.
In the case of `O=C(NCC(F)c1ccc(Cl)cc1Cl)c1c(Oc2cccc(C3CC3)c2)cnn2nccc12` (stereo not shown) [Compound P-1.15, 5-(3-cyclopropylphenoxy)-N-[2-(2,4-dichlorophenyl)-2-fluoro-ethyl]pyrazolo[1,5-b]pyridazine-4-carboxamide], the inhibition of growth at 20 ppm [1] is reported as ≥ 80% and the inhibition of growth at 20 ppm [2] is reported as ≥ 80%.
`O=C(NCC(F)c1ccc(Cl)cc1Cl)c1c(Oc2cccc(C3CC3)c2)cnc2cc(Cl)nn12` (stereo not shown) [Compound P-1.12, 2-chloro-6-(3-cyclopropylphenoxy)-N-[2-(2,4-dichlorophenyl)-2-fluoro-ethyl]pyrazolo[1,5-a]pyrimidine-7-carboxamide] was tested, and the inhibition of growth at 20 ppm [1] was ≥ 80% and the inhibition of growth at 20 ppm [2] was ≥ 80%.
With `N#Cc1cc2ncc(Oc3cccc(C4CC4)c3)c(C(=O)NCC(F)c3ccc(Cl)cc3Cl)n2n1` (stereo not shown) [Compound P-1.8, 2-cyano-6-(3-cyclopropylphenoxy)-N-[2-(2,4-dichlorophenyl)-2-fluoro-ethyl]pyrazolo[1,5-a]pyrimidine-7-carboxamide] the inhibition of growth at 20 ppm [1] was ≥ 80%, the “control of Puccinia recondita f. sp. tritici” value [4] was “at least 80%” and the inhibition of growth at 20 ppm [2] was ≥ 80%.
In the case of `Cc1cn2c(C(=O)NCC(F)c3ccc(Cl)cc3Cl)c(Oc3cccc(C4CC4)c3)cnc2n1` (stereo not shown) [Compound P-1.7, 6-(3-cyclopropylphenoxy)-N-[2-(2,4-dichlorophenyl)-2-fluoro-ethyl]-2-methyl-imidazo[1,2-a]pyrimidine-5-carboxamide], the inhibition of growth at 20 ppm [1] is reported as ≥ 80% and the inhibition of growth at 20 ppm [2] is reported as ≥ 80%.
For `O=C(NCC(F)c1ccc(Cl)cc1Cl)c1c(Oc2cccc(C3CC3)c2)cnc2ncnn12` (stereo not shown) [Compound P-1.2, 6-(3-cyclopropylphenoxy)-N-[2-(2,4-dichlorophenyl)-2-fluoro-ethyl]-[1,2,4]triazolo[1,5-a]pyrimidine-7-carboxamide], the inhibition of growth at 20 ppm [1] was ≥ 80% and the inhibition of growth at 20 ppm [2] was ≥ 80%.
In the case of `Cc1cnn2c(C(=O)NCC(F)c3ccc(Cl)cc3Cl)c(Oc3cccc(C4CC4)c3)cnc12` (stereo not shown) [Compound P-1.11, 6-(3-cyclopropylphenoxy)-N-[2-(2,4-dichlorophenyl)-2-fluoro-ethyl]-3-methyl-pyrazolo[1,5-a]pyrimidine-7-carboxamide], the inhibition of growth at 20 ppm [1] is reported as ≥ 80% and the inhibition of growth at 20 ppm [2] is reported as ≥ 80%.
In the case of `O=C(NCCc1ccc(Cl)cc1Cl)c1c(Oc2cccc(C3CC3)c2)cnc2ncnn12` [Compound P-1.5, 6-(3-cyclopropylphenoxy)-N-[2-(2,4-dichlorophenyl)ethyl]-[1,2,4]triazolo[1,5-a]pyrimidine-7-carboxamide], the inhibition of growth at 20 ppm [2] is reported as ≥ 80%.
For `O=C(NCC(F)c1ccc(Cl)cc1Cl)c1c(Oc2cccc(C3CC3)c2)cnc2ccnn12` (stereo not shown) [Compound P-1.3, 6-(3-cyclopropylphenoxy)-N-[2-(2,4-dichlorophenyl)-2-fluoro-ethyl]pyrazolo[1,5-a]pyrimidine-7-carboxamide], the inhibition of growth at 20 ppm [1] was ≥ 80% and the inhibition of growth at 20 ppm [2] was ≥ 80%.
In the case of `O=C(NCC(F)c1ccc(Cl)cc1Cl)c1c(Oc2cccc(C3CC3)c2)cnc2nccn12` (stereo not shown) [Compound P-1.1, 6-(3-cyclopropylphenoxy)-N-[2-(2,4-dichlorophenyl)-2-fluoro-ethyl]imidazo[1,2-a]pyrimidine-5-carboxamide], the inhibition of growth at 20 ppm [1] is reported as ≥ 80% and the inhibition of growth at 20 ppm [2] is reported as ≥ 80%.
With `O=C(NC[C@H](F)c1ccc(Cl)cc1Cl)c1c(Oc2cccc(C3CC3)c2)cnc2c(Cl)cnn12` (single isomer, unassigned) [Compound P-1.16] the “control of Blumeria graminis f. sp. tritici” value [5] was “at least 80%”, the inhibition of growth at 20 ppm [1] was ≥ 80% and the “control of Phaeosphaeria nodorum” value [6] was “at least 80%”. For the same compound, the inhibition of growth at 20 ppm [2] was ≥ 80%.
With `O=C(NCCc1ccc(Cl)cc1Cl)c1c(Oc2cccc(C3CC3)c2)cnc2nccn12` [Compound P-1.6, 6-(3-cyclopropylphenoxy)-N-[2-(2,4-dichlorophenyl)ethyl]imidazo[1,2-a]pyrimidine-5-carboxamide] the inhibition of growth at 20 ppm [1] was ≥ 80%.
For `Cc1nn2c(C(=O)NCC(F)c3ccc(Cl)cc3Cl)c(Oc3cccc(C4CC4)c3)cnc2c1Cl` (stereo not shown) [Compound P-1.19, 3-chloro-6-(3-cyclopropylphenoxy)-N-[2-(2,4-dichlorophenyl)-2-fluoro-ethyl]-2-methyl-pyrazolo[1,5-a]pyrimidine-7-carboxamide], the inhibition of growth at 20 ppm [2] was ≥ 80%.
`COc1nn2c(C(=O)NCC(F)c3ccc(Cl)cc3Cl)c(Oc3cccc(C4CC4)c3)cnc2c1C#N` (stereo not shown) [Compound P-1.18, 3-cyano-6-(3-cyclopropylphenoxy)-N-[2-(2,4-dichlorophenyl)-2-fluoro-ethyl]-2-methoxy-pyrazolo[1,5-a]pyrimidine-7-carboxamide] was tested, and the inhibition of growth at 20 ppm [2] was ≥ 80%.
With `Cc1nc2ncc(Oc3cccc(C4CC4)c3)c(C(=O)NCC(F)c3ccc(Cl)cc3Cl)n2n1` (stereo not shown) [Compound P-1.14, 6-(3-cyclopropylphenoxy)-N-[2-(2,4-dichlorophenyl)-2-fluoro-ethyl]-2-methyl-[1,2,4]triazolo[1,5-a]pyrimidine-7-carboxamide] the inhibition of growth at 20 ppm [1] was ≥ 80% and the inhibition of growth at 20 ppm [2] was ≥ 80%.
